The experiment deals with T1, mouse c-fms (Mus musculus, UniProt P09581).
T1 construct: Macrophage-like cell line BAC-1.2F5 which expresses c-fms as a M-CSF receptor on cell membranes; endogenous in cells; host or cells: BAC-1.2F5 mouse macrophage-like cell line
T1 sequence (P09581 20-977): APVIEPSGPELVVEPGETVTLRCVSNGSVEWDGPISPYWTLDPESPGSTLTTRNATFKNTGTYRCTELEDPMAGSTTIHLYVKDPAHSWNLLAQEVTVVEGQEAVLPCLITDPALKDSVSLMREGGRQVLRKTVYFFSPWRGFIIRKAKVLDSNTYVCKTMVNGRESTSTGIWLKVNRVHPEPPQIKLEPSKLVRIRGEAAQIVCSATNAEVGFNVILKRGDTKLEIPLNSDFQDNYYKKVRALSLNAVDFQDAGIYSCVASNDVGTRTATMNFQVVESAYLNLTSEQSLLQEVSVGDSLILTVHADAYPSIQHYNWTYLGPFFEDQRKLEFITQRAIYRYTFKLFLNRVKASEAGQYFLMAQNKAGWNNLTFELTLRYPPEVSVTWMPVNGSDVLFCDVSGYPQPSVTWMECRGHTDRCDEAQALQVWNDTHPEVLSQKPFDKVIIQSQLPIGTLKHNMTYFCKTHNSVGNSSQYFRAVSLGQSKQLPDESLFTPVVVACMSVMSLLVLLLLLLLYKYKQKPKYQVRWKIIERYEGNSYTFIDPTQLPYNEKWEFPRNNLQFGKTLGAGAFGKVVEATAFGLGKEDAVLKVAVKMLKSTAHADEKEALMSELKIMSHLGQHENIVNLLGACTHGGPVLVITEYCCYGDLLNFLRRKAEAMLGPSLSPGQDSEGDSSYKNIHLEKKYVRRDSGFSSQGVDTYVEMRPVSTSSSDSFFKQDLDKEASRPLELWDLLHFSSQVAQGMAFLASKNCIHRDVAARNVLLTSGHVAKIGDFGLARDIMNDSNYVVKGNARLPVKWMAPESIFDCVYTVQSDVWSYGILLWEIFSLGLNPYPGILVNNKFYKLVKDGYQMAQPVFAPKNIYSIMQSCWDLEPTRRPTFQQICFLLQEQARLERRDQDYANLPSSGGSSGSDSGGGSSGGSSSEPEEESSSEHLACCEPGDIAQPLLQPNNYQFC
The experiment in a line: Inhibition of c-fms autophosphorylation in macrophage-like cell line BAC-1.2F5 by M-CSF stimulation (ELISA). The note with it: BAC-1.2F5 cells, human recombinant M-CSF 50 ng/ml, read-out: c-fms autophosphorylation 50% inhibitory concentration (IC50). In kind it is cell-based. In short, it runs like this:
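BAC-1.2F5 cells serum-starved (0.1% FCS) 12 h, preincubated with compound 1 h at 37° C, then stimulated 6 min with 50 ng/ml human recombinant M-CSF. Lysates captured on anti-phosphotyrosine plates, detected with anti-c-fms antiserum and peroxidase read-out at 450 nm. IC50 from inhibition normalised between ±M-CSF controls.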

As to `COc1cc2nccc(Oc3ccc(NC(=O)NC(C)c4nc(C)cs4)c(C(F)(F)F)c3)c2cc1OC` (stereo not drawn) [Example 92, N-[4-[(6,7-Dimethoxy-4-quinolyl)oxy]-2-(trifluoromethyl)phenyl]-N′-[1-(4-methyl-1,3-thiazol-2-yl)ethyl]urea], the IC50 was 8.4 nM.
To `COc1cc2nccc(Oc3cc(C)c(NC(=O)NC(C)c4nc(C)cs4)cc3C)c2cc1OC` (stereo not drawn) [Example 93, N-{4-[(6,7-Dimethoxy-4-quinolyl)oxy]-2,5-dimethylphenyl}-N′-[1-(4-methyl-1,3-thiazol-2-yl)ethyl]urea] belongs 38.6 nM; to `COc1cc(Oc2ccnc3cc(OC)c(OC)cc23)ccc1NC(=O)NC(C)c1nc(C)c(C)s1` (stereo not drawn) [Example 99, N-{4-[(6,7-Dimethoxy-4-quinolyl)oxy]-2-methoxyphenyl}-N′-[1-(4,5-dimethyl-1,3-thiazol-2-yl)ethyl]urea], 12.6 nM.
The same measure for `COc1cc2nccc(Oc3ccc(NC(=O)NC(C)c4ncc(C)s4)cc3)c2cc1OC` (stereo not drawn) [Example 100, N-{4-[(6,7-Dimethoxy-4-quinolyl)oxy]phenyl}-N′-[1-(5-methyl-1,3-thiazol-2-yl)ethyl]urea]: 15.7 nM; for `COc1cc2nccc(Oc3ccc(NC(=O)NC(C)c4ncc(C)s4)c(F)c3)c2cc1OC` (stereo not drawn) [Example 101, N-{4-[(6,7-Dimethoxy-4-quinolyl)oxy]-2-fluorophenyl}-N′-[1-(5-methyl-1,3-thiazol-2-yl)ethyl]urea]: 20.1 nM; for `COc1cc2nccc(Oc3ccc(NC(=O)NC(C)c4ncc(C)s4)cc3F)c2cc1OC` (stereo not drawn) [Example 102, N-{4-[(6,7-Dimethoxy-4-quinolyl)oxy]-3-fluorophenyl}-N′-[1-(5-methyl-1,3-thiazol-2-yl)ethyl]urea]: 20.3 nM.
The same measure for `COc1cc2nccc(Oc3ccc(NC(=O)NC(C)c4ncc(C)s4)c(C)c3)c2cc1OC` (stereo not drawn) [Example 103, N-{4-[(6,7-Dimethoxy-4-quinolyl)oxy]-2-methylphenyl}-N′-[1-(5-methyl-1,3-thiazol-2-yl)ethyl]urea]: 69.6 nM; for `COc1cc2nccc(Oc3ccc(NC(=O)NC(C)c4ncc(C)s4)c(C(F)(F)F)c3)c2cc1OC` (stereo not drawn) [Example 104, N-[4-[(6,7-Dimethoxy-4-quinolyl)oxy]-2-(trifluoromethyl)phenyl]-N′-[1-(5-methyl-1,3-thiazol-2-yl)ethyl]urea]: 22 nM; for `COc1cc(Oc2ccnc3cc(OC)c(OC)cc23)ccc1NC(=O)NC(C)c1ncc(C)s1` (stereo not drawn) [Example 105, N-{4-[(6,7-Dimethoxy-4-quinolyl)oxy]-2-methoxyphenyl}-N′-[1-(5-methyl-1,3-thiazol-2-yl)ethyl]urea]: 12.7 nM.
